Values quoted from earlier work as cited in patent US12292444B2, “Methods and compositions related to modified green fluorescent protein (GFP) with an embedded foreign peptide” (University of South Florida, priority 2020, dated 2025).

Test system: Gram-negative bacteria, such as Escherichia coli, Pseudomonas aeruginosa, and Salmonella typhimurium
Details: Wu 1999

Substance: Bactenecin: Antimicrobial peptide synthesized by neutrophils, used as substitute of the central α-helix in GFP (RLCRIVSYGVIRVCRR; listed as Aequorea victoria)
- activity against Gram-negative bacteria: has an activity
